Holding throughout (type): cell-based
For series [1], the system named is washed human erythrocytes. Description: in vitro haemolysis assay. The following applies: for HD50 (50% haemolytic dose): washed human erythrocytes, 3 hours at 37° C. How it is done:
Haemolysis is a clinical condition where the red cell membrane is irreversibly damaged causing the release of its haemoglobin content. The in vitro haemolysis assay is a simple test to determine the haemolytic potential of a test substance on isolated and washed red blood cells.
In this example three compounds identified as compound A, compound C disodium salt and compound B ½ maleate salt and Saponin from Quillaja bark (S4521) were tested for haemolytic potential using washed human erythrocytes. The compounds were tested over a dose curve with a maximum concentration of […] and a lowest concentration of […]. The concentration range is […].
Briefly, whole blood (40 mL) was collected from a single human volunteer into multiple EDT vacutainer tubes. The red blood cells (RBC) were washed and isolated from plasma components by three centrifugations at 3000 rpm for 5 minutes in isotonic 0.9% sodium chloride. After the final wash, 0.1 mL volumes of red blood cells were added to each treatment tube.
The test compounds compound A, compound C disodium salt and compound B % maleate salt and the reference article (Saponin S4521) were initially formulated as 100× stock solutions at a concentration of 10 mg/mL in the appropriate diluents (DMSO for compounds, 0.9% NaCl for Saponin S4521). These stock solutions were then further diluted 1:100 in 0.9% NaCl to prepare the highest concentration of […] in 1% DMSO/NaCl. The highest concentration solutions were further diluted serially 1:2 in 1% DMSONaC1 to achieve lower concentrations of 50, 25, 12.5, 6.25, 3.125, 1.562 and 0.781 pg/ml of active component.
The positive control article (hypertonic solution of […]) was formulated by weighing 2.92 g NaCl in 10 mL MilliQ water. The negative control article (isotonic solution of 0.154M NaCl) was formulated on the day of use by dissolving 0.09 g NaCl into 10 mL MilliQ water. The vehicle used to dilute the test articles, 1% DMSO/NaCl, was used as the reagent blank in the assay.
Tubes containing cells and treatments were incubated at 37° C. with gentle agitation in an orbital mixer for 3 hours. At completion of the incubation, tubes were centrifuged at 3000 rpm for 5 minutes and 200 ptL aliquots of supernatant from each tube were transferred to a 96-well microplate for measurement of absorbance at 535 nm. A layout for the 96-Nell microplate is presented in Appendix 1. A 1% DMSO/NaCl vehicle in the absence of blood was used as the reagent blank in the assay.
Mean values for the negative (0.154M NaCl), positive (5M NaCl) and blank triplicate wells were determined. These were then used to calculate the % haemolysis for each sample according to the following formula: […]
Calculations of 50% haemolytic dose (HD50) was performed by non-linear regression analyses using a log(agonist) vs normalized response variable slope curve fit on GraphPad Prism for Mac OS X (Version 5.0c, GraphPad Software, California, USA).

Another series relates to A549. Description: CellTiter-Blue cell growth inhibition assay, A549. The following applies: Homo sapiens, A549, 48 h. The protocol:
(§1) Duplicate experiments were performed using the CellTiter-Blue® Cell Viability Assay to determine IC50 values for Compound A, Compound B and Compound C against each cell line. The general methodology for preparation of test articles described in Example 6 was used. The test compounds compound A, compound C disodium salt and compound B ½ maleate salt were initially formulated as 100× stock solutions at a concentration of 10 mg/mL in the appropriate diluents (DMSO for compounds). These stock solutions were then further diluted in cell culture medium to achieve lower concentrations of 100, 50, 25, 12.5, 6.25 and 3.125, 1.563, 0.781, 0.390 and 0.195 μM of active component. The specific cancer cells were A549, HCT 116, MCF-7 and MIA PaCa-2.
(§2) Human cancer cell types were: HTC-116 (colon); A549 (Lung); HT29 (colon); MCF-7; Mia PaCa-2 (pancreas)
(§3) Cells were seeded in duplicate at 3-4,000 per microtitre well in 50 μl of cell culture medium . After 24 hours, 50 μL of test article or vehicle control prepared in medium at 2× required concentration were added to each well. Cancer cells were allowed to grow in the presence of drug for 48 hours before cell growth relative to untreated control wells was determined with CellTiter-Blue® Cell Viability Assay.
(§4) IC50 values were calculated using Prism 6 for Mac OS X using a nonlinear regression (log(inhibitor) vs. response—Variable slope (four parameters)
(Alamar Blue is a resazurin reagent that responds to reducing activity.)

The next series has as its system HCT 116. Description: CellTiter-Blue cell growth inhibition assay, HCT 116. The following applies: Homo sapiens, HCT-116, 48 h. How it is done: as §1, §2, §3, §4
In a further series the test system is MCF-7. The experiment in a line: CellTiter-Blue cell growth inhibition assay, MCF-7. The following applies: Homo sapiens, MCF7, 48 h. How it is done:
as §1, §2, §3, §4

The subject of another series is MIA PaCa-2. The experiment in a line: CellTiter-Blue cell growth inhibition assay, MIA PaCa-2. The following applies: Homo sapiens, MIA PaCa-2, 48 h. The protocol:
as §1, §2, §3, §4

The test system of a further series is PC-3. The experiment in a line: CellTiter-Blue cell growth inhibition assay, PC-3. Particulars: Homo sapiens, PC-3, 48 h.
[2] abbreviates: HCT 116, Average ± SEM, 48 hours.
Where [3] appears, read: HCT 116, Experiment 1, 48 hours.
[4] abbreviates: HCT 116, Experiment 2, 48 hours.
Where [5] appears, read: MIA PaCa-2, Average ± SEM, 48 hours.
Where [6] appears, read: MIA PaCa-2, Experiment 1, 48 hours.
The mark [7] stands for this setting: MIA PaCa-2, Experiment 2, 48 hours.

Broadly, the IC50 is the concentration that gives 50% inhibition. Higher therefore signals weaker potency in that assay.

With `CC1O[C@@H](OC2C(O)[C@H](O)C(CO)O[C@H]2O[C@H]2CC[C@@]3(C)C(=CC[C@H]4[C@@H]5C[C@@H]6O[C@]7(CC[C@@H](C)CO7)[C@@H](C)[C@@H]6[C@@]5(C)CC[C@@H]43)C2)C(O)C(O)[C@H]1O` (stereo partly drawn) [Compound A, diosgenyl α-L-rhamnopyranosyl-(1→2)-β-D-glucopyranoside, reference compound], the percent haemolysis in series [1] (concentration 0.781 μg/ml) is given as −0.3%; in series [1] (concentration 1.562 μg/ml) it was 0.5%; in series [1] (concentration 3.125 μg/ml), −0.1%; in series [1] (concentration 6.25 μg/ml) it was 3.2%; in series [1] (concentration 12.5 μg/ml), 13.4%; in series [1] (concentration 25 μg/ml), 36.0%. Besides, the percent haemolysis in series [1] (concentration 50 μg/ml) worked out at 86.7%; in series [1] (concentration 100 μg/ml) it was 103.2%. In addition, in series [1], the “HD50 (50% haemolytic dose)” value was determined as 31.57 µg/mL. For the same molecule, the IC50 with A549 (A549, Average ± SEM, 48 hours) was 4.17 ± 0.57 µM; with A549 (A549, Experiment 1, 48 hours), 4.74 µM; in the series with A549 (A549, Experiment 2, 48 hours), 3.6 µM; with HCT 116 (setting [2]) it was 5.1 ± 0.08 µM; in the series on HCT 116 (setting [3]), 5.17 µM; with HCT 116 (setting [4]), 5.02 µM. For the same molecule, the 50% inhibitory concentration (IC50) is 7.65 ± 0.27 µM with MCF-7 (MCF-7, Average ± SEM, 48 hours); 7.91 µM in the series on MCF-7 (MCF-7, Experiment 1, 48 hours); 7.38 µM with MCF-7 (MCF-7, Experiment 2, 48 hours); 5.63 ± 0.55 µM in the series on MIA PaCa-2 (setting [5]); 6.17 µM in the series on MIA PaCa-2 (setting [6]); 5.08 µM in the series with MIA PaCa-2 (setting [7]). In addition, the IC50 came out at 6.14 ± 0.29 µM in the series on PC-3 (PC-3, Average ± SEM, 48 hours); 6.42 µM with PC-3 (PC-3, Experiment 1, 48 hours); 5.85 µM in the series with PC-3 (PC-3, Experiment 2, 48 hours).

For the molecule `CC1O[C@@H](OC2C(O)[C@H](O)C(COC(=O)[C@@H](N)C(C)C)O[C@H]2O[C@H]2CC[C@@]3(C)C(=CC[C@H]4[C@@H]5C[C@@H]6O[C@]7(CC[C@@H](C)CO7)[C@@H](C)[C@@H]6[C@@]5(C)CC[C@@H]43)C2)C(O)C(O)[C@H]1O` (stereo partly drawn) [Compound B], the IC50 in the series on A549 (A549, Average ± SEM, 48 hours) was found to be 10.2 ± 0.31 µM; in the series on A549 (A549, Experiment 1, 48 hours), 9.86 µM; with A549 (A549, Experiment 2, 48 hours), 10.5 µM; with HCT 116 (setting [2]), 12.4 ± 0.72 µM; in the series on HCT 116 (setting [3]), 11.7 µM; in the series with HCT 116 (setting [4]), 13.1 µM. Further, the IC50 was found to be 15 ± 0.32 µM in the series on MCF-7 (MCF-7, Average ± SEM, 48 hours); 14.7 µM with MCF-7 (MCF-7, Experiment 1, 48 hours); 15.3 µM in the series with MCF-7 (MCF-7, Experiment 2, 48 hours); 9.39 ± 1.77 µM in the series on MIA PaCa-2 (setting [5]); 11.2 µM with MIA PaCa-2 (setting [6]); 7.62 µM in the series on MIA PaCa-2 (setting [7]). For the same molecule, the IC50 in the series with PC-3 (PC-3, Average ± SEM, 48 hours) was found to be 11.7 ± 0.7 µM; with PC-3 (PC-3, Experiment 1, 48 hours), 12.4 µM; with PC-3 (PC-3, Experiment 2, 48 hours), 11 µM.

For `CC1O[C@@H](OC2C(O)[C@H](O)C(COP(=O)([O-])O)O[C@H]2O[C@H]2CC[C@@]3(C)C(=CC[C@H]4[C@@H]5C[C@@H]6O[C@]7(CC[C@@H](C)CO7)[C@@H](C)[C@@H]6[C@@]5(C)CC[C@@H]43)C2)C(O)C(O)[C@H]1O.[Na+]` (stereo partly drawn) [Compound C disodium salt], the percent haemolysis was determined as 1.0% in series [1] (concentration 0.781 μg/ml); 1.9% in series [1] (concentration 1.562 μg/ml); 0.5% in series [1] (concentration 3.125 μg/ml); 1.6% in series [1] (concentration 6.25 μg/ml); 0.5% in series [1] (concentration 12.5 μg/ml); 1.8% in series [1] (concentration 25 μg/ml). For the same molecule, the percent haemolysis stood at 2.9% in series [1] (concentration 50 μg/ml) and 51.9% in series [1] (concentration 100 μg/ml). For the same molecule, the “HD50 (50% haemolytic dose)” value in series [1] is 145.70 µg/mL.

In the case of `CC1O[C@@H](OC2C(O)[C@H](O)C(COP(=O)(O)O)O[C@H]2O[C@H]2CC[C@@]3(C)C(=CC[C@H]4[C@@H]5C[C@@H]6O[C@]7(CC[C@@H](C)CO7)[C@@H](C)[C@@H]6[C@@]5(C)CC[C@@H]43)C2)C(O)C(O)[C@H]1O` (stereo partly drawn) [Compound C], the concentration for half-maximal inhibition (IC50) was 2 ± 0.47 µM in the series on A549 (A549, Average ± SEM, 48 hours); 2.46 µM in the series with A549 (A549, Experiment 1, 48 hours); 1.53 µM with A549 (A549, Experiment 2, 48 hours); 3.04 ± 1.05 µM in the series on HCT 116 (setting [2]); 4.08 µM with HCT 116 (setting [3]); 1.99 µM in the series on HCT 116 (setting [4]). Further, the half-inhibitory concentration (IC50) in the series with MCF-7 (MCF-7, Average ± SEM, 48 hours) came to 4.17 ± 1.29 µM; with MCF-7 (MCF-7, Experiment 1, 48 hours), 5.45 µM; in the series on MCF-7 (MCF-7, Experiment 2, 48 hours), 2.88 µM; in the series on MIA PaCa-2 (setting [5]), 3.04 ± 0.49 µM; in the series on MIA PaCa-2 (setting [6]) it was 3.52 µM; in the series on MIA PaCa-2 (setting [7]), 2.55 µM. In addition, the IC50 in the series on PC-3 (PC-3, Average ± SEM, 48 hours) worked out at 3.25 ± 1.07 µM; with PC-3 (PC-3, Experiment 1, 48 hours), 4.32 µM; in the series with PC-3 (PC-3, Experiment 2, 48 hours), 2.18 µM.

For the origin of these results see patent US10925887B2, “Steroid saponins with anti-cancer activity” (Oncology Research International Limited, priority 2017, dated 2021).
